Where two headings read alike, the source gives them in different places.
Tested on: HIV
Assay: HIV MT4 Assay (antiviral HIV activity in MT-4 cells)
Format: cell-based
Procedure: Antiviral HIV activity and cytotoxicity values for compounds of the invention from Table 1 were measured in parallel in the HTLV-1 transformed cell line MT-4 based on the method previously described (Hazen et al., 2007, In vitro antiviral activity of the novel, tyrosyl-based human immunodeficiency virus (HIV) type 1 protease inhibitor brecanavir (GW640385) in combination with other antiretrovirals and against a panel of protease inhibitor-resistant HIV (Hazen et al., “In vitro antiviral activity of the novel, tyrosyl-based human immunodeficiency virus (HIV) type 1 protease inhibitor brecanavir (GW640385) in combination with other antiretrovirals and against a panel of protease inhibitor-resistant HIV”, Antimicrob. Agents Chemother. 2007, 51: 3147-3154; and Pauwels et al., “Sensitive and rapid assay on MT-4 cells for the detection of antiviral compounds against the AIDS virus”, (J. of Virological Methods 1987, 16: 171-185).
Luciferase activity was measured 96 hours later by adding a cell titer glo (Promega, Madison, Wis.). Percent inhibition of cell protection data was plotted relative to no compound control. Under the same condition, cytotoxicity of the compounds was determined using cell titer Glo™ (Promega, Madison, Wis.). IC50s were determined from a 10 point dose response curve using 3-4-fold serial dilution for each compound, which spans a concentration range >1000 fold.
These values are plotted against the molar compound concentrations using the standard four parameter logistic equation: y=((Vmax*x^n)/(K^n+x^n))+Y^2
Y^2=minimum y n=slope factor
Vmax=maximum y x=compound concentration [M]

[1] = Human immunodeficiency virus 1, MT4, HTLV-1 transformed cell line MT-4, luciferase activity measured 96 hours later, Table 3, read-out: HIV MT4 Assay IC50
[2] = MT4, 96 h, read-out: MT4 (IC50)

Compound	IC50 [1]	IC50 [2]
Cc1ccc(-c2c(C(OC(C)(C)C)C(=O)O)n(C)c(=O)c3c2c2ccccc2n3C)cc1 (centres unmarked) [Example 57, 2-(tert-butoxy)-2-(2,9-dimethyl-1-oxo-4-(p-tolyl)-2,9-dihydro-1H-pyrido[3,4-b]indol-3-yl)acetic acid]	80 nM	80 nM
Cc1ccc(-c2c(C(OC(C)(C)C)C(=O)O)n(C)c(=O)c3c2ccn3Cc2ccc3c(c2)OCO3)cc1 (centres unmarked) [Example 33, 2-(1-(benzo[d][1,3]dioxol-5-ylmethyl)-6-methyl-7-oxo-4-(p-tolyl)-6,7-dihydro-1H-pyrrolo[2,3-c]pyridin-5-yl)-2-(tert-butoxy)acetic acid]	210 nM	210 nM
COc1ccc(-c2c(C(OC(C)(C)C)C(=O)O)n(C)c(=O)c3c2ccn3Cc2ccc(F)cc2)cc1 (centres unmarked) [Example 36, 2-(tert-butoxy)-2-(1-(4-fluorobenzyl)-4-(4-methoxyphenyl)-6-methyl-7-oxo-6,7-dihydro-1H-pyrrolo[2,3-c]pyridin-5-yl)acetic acid]	60 nM	60 nM
Cc1c(-c2c(C(OC(C)(C)C)C(=O)O)n(C)c(=O)c3c2cnn3Cc2ccc(F)cc2)ccc2c1CCCO2 (centres unmarked) [Example 67, 2-(tert-butoxy)-2-(1-(4-fluorobenzyl)-6-methyl-4-(5-methylchroman-6-yl)-7-oxo-6,7-dihydro-1H-pyrazolo[3,4-c]pyridin-5-yl)acetic acid]	80 nM	80 nM
Cc1ccc(-c2c(C(OC(C)(C)C)C(=O)O)n(C)c(=O)c3c2ccn3Cc2cc(F)c(F)c(F)c2)cc1 (centres unmarked) [Example 32, 2-(tert-butoxy)-2-(6-methyl-7-oxo-4-(p-tolyl)-1-(3,4,5-trifluorobenzyl)-6,7-dihydro-1H-pyrrolo[2,3-c]pyridin-5-yl)acetic acid]	80 nM	80 nM
Cc1ccc(-c2c(C(OC(C)(C)C)C(=O)O)n(C)c(=O)c3c2cnn3Cc2ccc(F)cc2)cc1 (centres unmarked) [Example 64, 2-(tert-Butoxy)-2-(1-(4-fluorobenzyl)-6-methyl-7-oxo-4-(p-tolyl)-6,7-dihydro-1H-pyrazolo[3,4-c]pyridin-5-yl)acetic acid]	180 nM	180 nM
Cc1ccc(-c2c(C(OC(C)(C)C)C(=O)O)n(C)c(=O)c3c2ccn3CCc2ccc(F)cc2)cc1 (centres unmarked) [Example 26, 2-(tert-butoxy)-2-(1-(4-fluorophenethyl)-6-methyl-7-oxo-4-(p-tolyl)-6,7-dihydro-1H-pyrrolo[2,3-c]pyridin-5-yl)acetic acid]	2250 nM	2250 nM
Cc1ccc(-c2c(C(OC(C)(C)C)C(=O)O)n(C)c(=O)c3c2ccn3-c2ccc(F)cc2)cc1 (centres unmarked) [Example 34, 2-(tert-butoxy)-2-(1-(4-fluorophenyl)-6-methyl-7-oxo-4-(p-tolyl)-6,7-dihydro-1H-pyrrolo[2,3-c]pyridin-5-yl)acetic acid]	770 nM	770 nM
COc1ccc(Cn2ncc3c(-c4ccc(C)c(C)c4)c(C(OC(C)(C)C)C(=O)O)n(C)c(=O)c32)cc1 (centres unmarked) [Example 63, 2-(tert-Butoxy)-2-(4-(3,4-dimethylphenyl)-1-(4-methoxybenzyl)-6-methyl-7-oxo-6,7-dihydro-1H-pyrazolo[3,4-c]pyridin-5-yl)acetic acid]	1200 nM	1200 nM
COc1ccc(Cn2ccc3c(-c4ccc(C)cc4)c(C(OC(C)(C)C)C(=O)O)n(C)c(=O)c32)cc1 (centres unmarked) [Example 29, 2-(tert-butoxy)-2-(1-(4-methoxybenzyl)-6-methyl-7-oxo-4-(p-tolyl)-6,7-dihydro-1H-pyrrolo[2,3-c]pyridin-5-yl)acetic acid]	170 nM	170 nM
Cn1c(C(OC(C)(C)C)C(=O)O)c(-c2ccc(Cl)cc2)c2ccn(CCN3CCCCC3)c2c1=O (centres unmarked) [Example 7, 2-(tert-butoxy)-2-(4-(4-chlorophenyl)-6-methyl-7-oxo-1-(2-(piperidin-1-yl)ethyl)-6,7-dihydro-1H-pyrrolo[2,3-c]pyridin-5-yl)acetic acid]	1000 nM	1000 nM
Cc1c(-c2c(C(OC(C)(C)C)C(=O)O)n(C)c(=O)c3c2cnn3Cc2ccccn2)ccc2c1CCCO2 (centres unmarked) [Example 66, 2-(tert-Butoxy)-2-(6-methyl-4-(5-methylchroman-6-yl)-7-oxo-1-(pyridin-2-ylmethyl)-6,7-dihydro-1H-pyrazolo[3,4-c]pyridin-5-yl)acetic acid]	1360 nM	1360 nM
Cn1c(C(OC(C)(C)C)C(=O)O)c(-c2ccc(Cl)cc2)c2ccn(Cc3ccc(F)cc3)c2c1=O (centres unmarked) [Example 2, 2-(tert-butoxy)-2-(4-(4-chlorophenyl)-1-(4-fluorobenzyl)-6-methyl-7-oxo-6,7-dihydro-1H-pyrrolo[2,3-c]pyridin-5-yl)acetic acid]	160 nM	160 nM
Cc1ccc(NC(=O)Cn2ccc3c(-c4ccc(Cl)cc4)c(C(OC(C)(C)C)C(=O)O)n(C)c(=O)c32)c(O)c1 (centres unmarked) [Example 12, 2-(tert-butoxy)-2-(4-(4-chlorophenyl)-1-(2-((2-hydroxy-4-methylphenyl)amino)-2-oxoethyl)-6-methyl-7-oxo-6,7-dihydro-1H-pyrrolo[2,3-c]pyridin-5-yl)acetic acid]	3250 nM	3250 nM
COc1ccc(Cn2c3c(c4c(-c5ccc(C)cc5)c(C(OC(C)(C)C)C(=O)O)n(C)c(=O)c42)CCCC3)cc1 (centres unmarked) [Example 61, 2-(tert-butoxy)-2-(9-(4-methoxybenzyl)-2-methyl-1-oxo-4-(p-tolyl)-2,5,6,7,8,9-hexahydro-1H-pyrido[3,4-b]indol-3-yl)acetic acid]	100 nM	100 nM
Cc1ccc(-c2c(C(OC(C)(C)C)C(=O)O)n(C)c(=O)c3c2ccn3CC(=O)Nc2ccc(F)cc2)cc1 (centres unmarked) [Example 35, 2-(tert-butoxy)-2-(1-(2-((4-fluorophenyl)amino)-2-oxoethyl)-6-methyl-7-oxo-4-(p-tolyl)-6,7-dihydro-1H-pyrrolo[2,3-c]pyridin-5-yl)acetic acid]	1000 nM	1000 nM
Cc1ccc(-c2c([C@H](OC(C)(C)C)C(=O)O)n(C)c(=O)c3c2ccn3Cc2ccc(F)cc2)cc1 [Example 24, (S)-2-(tert-butoxy)-2-(1-(4-fluorobenzyl)-6-methyl-7-oxo-4-(p-tolyl)-6,7-dihydro-1H-pyrrolo[2,3-c]pyridin-5-yl)acetic acid]	40 nM	40 nM
Cc1ccc(Cn2ccc3c(-c4ccc5c(c4C)CCCO5)c(C(OC(C)(C)C)C(=O)O)n(C)c(=O)c32)cc1F (centres unmarked) [Example 49, 2-(tert-butoxy)-2-(1-(3-fluoro-4-methylbenzyl)-6-methyl-4-(5-methylchroman-6-yl)-7-oxo-6,7-dihydro-1H-pyrrolo[2,3-c]pyridin-5-yl)acetic acid]	40 nM	40 nM
Cc1c(-c2c(C(OC(C)(C)C)C(=O)O)n(C)c(=O)c3c2ccn3Cc2ccccn2)ccc2c1CCCO2 (centres unmarked) [Example 42, 2-(tert-butoxy)-2-(6-methyl-4-(5-methylchroman-6-yl)-7-oxo-1-(pyridin-2-ylmethyl)-6,7-dihydro-1H-pyrrolo[2,3-c]pyridin-5-yl)acetic acid]	540 nM	540 nM
Cc1ccc(-c2c(C(OC(C)(C)C)C(=O)O)n(C)c(=O)c3c2ccn3Cc2ccc(S(C)(=O)=O)cc2)cc1 (centres unmarked) [Example 27, 2-(tert-butoxy)-2-(6-methyl-1-(4-(methylsulfonyl)benzyl)-7-oxo-4-(p-tolyl)-6,7-dihydro-1H-pyrrolo[2,3-c]pyridin-5-yl)acetic acid]	3850 nM	3850 nM
Cn1c(C(OC(C)(C)C)C(=O)O)c(-c2ccc(Cl)cc2)c2ccn(Cc3cn(CCO)nn3)c2c1=O (centres unmarked) [Example 18, 2-(tert-butoxy)-2-(4-(4-chlorophenyl)-1-((1-(2-hydroxyethyl)-1H-1,2,3-triazol-4-yl)methyl)-6-methyl-7-oxo-6,7-dihydro-1H-pyrrolo[2,3-c]pyridin-5-yl)acetic acid]	50000 nM	50000 nM
Cc1c(-c2c(C(OC(C)(C)C)C(=O)O)n(C)c(=O)c3c2ccn3Cc2ccc([N+](=O)[O-])cc2)ccc2c1CCCO2 (centres unmarked) [Example 47, 2-(tert-butoxy)-2-(6-methyl-4-(5-methylchroman-6-yl)-1-(4-nitrobenzyl)-7-oxo-6,7-dihydro-1H-pyrrolo[2,3-c]pyridin-5-yl)acetic acid]	40 nM	40 nM
Cn1c(C(OC(C)(C)C)C(=O)O)c(-c2ccc(F)cc2)c2ccn(Cc3ccc(F)cc3)c2c1=O (centres unmarked) [Example 37, 2-(tert-butoxy)-2-(1-(4-fluorobenzyl)-4-(4-fluorophenyl)-6-methyl-7-oxo-6,7-dihydro-1H-pyrrolo[2,3-c]pyridin-5-yl)acetic acid]	670 nM	670 nM
Cc1ccc(-c2c(C(OC(C)(C)C)C(=O)O)n(C)c(=O)c3c2c2c(n3C)CCCC2)cc1 (centres unmarked) [Example 60, 2-(tert-butoxy)-2-(2,9-dimethyl-1-oxo-4-(p-tolyl)-2,5,6,7,8,9-hexahydro-1H-pyrido[3,4-b]indol-3-yl)acetic acid]	50 nM	50 nM
Cc1ccc(-c2c(C(OC(C)(C)C)C(=O)O)n(C)c(=O)c3c2ccn3Cc2ccccc2)cc1 (centres unmarked) [Example 19, 2-(1-benzyl-6-methyl-7-oxo-4-(p-tolyl)-6,7-dihydro-1H-pyrrolo[2,3-c]pyridin-5-yl)-2-(tert-butoxy)acetic acid]	80 nM	80 nM

From patent US9012642B2, “Pyrrolopyridinone compounds and methods for treating HIV” (ViiV Healthcare UK Limited, priority 2011, dated 2015)
